According to ChEMBL document CHEMBL1133786, “Synthesis and dopaminergic properties of the two enantiomers of 3-(3,4-dimethylphenyl)-1-propylpiperidine, a potent and selective dopamine D4 receptor ligand” (Bioorg Med Chem Lett, 2001):

Experiments:
D(1A) dopamine receptor = D(1A) dopamine receptor (Bos taurus, UniProt Q95136); assay: Binding affinity for dopamine D1-like receptor labelled with [3H]SCH-23390 in retina; type: tissue-based
[1] = Binding affinity for dopamine D2-D3 like receptor labelled with [3H]YM-09151-2 in striatum; type: tissue-based, Bos taurus
[2] = Binding affinity for dopamine D4-like receptor labelled with [3H]YM-09151-2 in retina; type: tissue-based, Bos taurus

Chain of D(1A) dopamine receptor (Q95136 whole entry): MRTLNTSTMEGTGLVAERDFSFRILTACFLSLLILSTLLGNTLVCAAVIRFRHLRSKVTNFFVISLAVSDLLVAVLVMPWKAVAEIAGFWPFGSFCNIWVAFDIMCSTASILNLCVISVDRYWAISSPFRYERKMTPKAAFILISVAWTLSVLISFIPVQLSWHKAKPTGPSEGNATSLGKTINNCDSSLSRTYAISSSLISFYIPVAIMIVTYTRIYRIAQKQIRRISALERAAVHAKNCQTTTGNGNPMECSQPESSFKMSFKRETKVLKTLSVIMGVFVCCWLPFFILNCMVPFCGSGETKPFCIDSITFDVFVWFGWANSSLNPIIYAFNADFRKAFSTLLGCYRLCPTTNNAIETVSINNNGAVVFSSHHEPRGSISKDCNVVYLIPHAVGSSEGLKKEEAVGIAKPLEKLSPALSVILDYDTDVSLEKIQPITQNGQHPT

CCCN1CCC[C@@H](c2ccc(C)c(C)c2)C1 gave a Ki (D(1A) dopamine receptor) greater than 100 µM, a Ki [1] of 5 µM and a Ki [2] of 0.023 µM.

For CCCN1CCC[C@H](c2ccc(C)c(C)c2)C1, the Ki (D(1A) dopamine receptor) was greater than 100 µM, the Ki [1] was greater than 100 µM and the Ki [2] was 0.004 µM.

CCCN1CCCC(c2ccc(C)c(C)c2)C1 (centres undefined) showed a Ki (D(1A) dopamine receptor) greater than 100 µM, a Ki [1] of 11 µM and a Ki [2] of 0.01 µM.

For CCCN1CCC[C@H](c2cccc(O)c2)C1, the Ki [1] was 0.404 µM and the Ki [2] was 0.397 µM.

Work on NCCc1ccc(O)c(O)c1 [DOPAMINE] yielded a Ki [1] of 0.13 µM and a Ki [2] of 0.015 µM.

For Cc1cccc(C(=O)NCN2CCN(c3ccccc3C#N)CC2)c1 [PD-168,077], the Ki [1] was 18.3 µM and the Ki [2] was 0.025 µM.

CCCN1CCC[C@@H](c2cccc(O)c2)C1 [PRECLAMOL] showed a Ki [1] of 0.008 µM and a Ki [2] of 0.187 µM.

For CCCN1CCC[C@@H]2Cc3n[nH]cc3C[C@H]21 [QUINPIROLE], the Ki [1] was 0.241 µM and the Ki [2] was 0.059 µM.
